In patent US6545030B1, “1-heterocycle substituted diarylamines” (Warner-Lambert Company, priority 1999, dated 2003):
Where a name gives a salt, the structure may show the parent alone.

Compared with Cc1cc(I)ccc1Nc1ccc(Cl)cc1C1=NC(C)(C)CO1 (as salt: salt) [Example 1, [4-Chloro-2-(4,4-Dimethyl-4,5-dihydro-oxazol-2-yl)-phenyl]-(4-iodo-2-methyl-phenyl)-amine], Cc1cc(I)ccc1Nc1c(-c2nnco2)ccc(F)c1F [Example 9, (2,3-Difluoro-6-[1,3,4]oxadiazol-2-yl-phenyl)-(4-iodo-2-methyl-phenyl)-amine] is lower in melting point: 324 to 330 °C for the first, 144.4 to 145.5 °C for the second.

For Cc1cc(I)ccc1Nc1c(-c2nnc(S)o2)ccc(F)c1F [Example 10, 5-[3,4-Difluoro-2-(4-iodo-2-methyl-phenylamino)-phenyl]-[1,3,4]oxadiazole-2-thiol], the melting point was 231.8 to 232.8 °C.
